Holding throughout (type): biochemical
One assay concerns the target T1, cathepsin L (Rattus norvegicus, UniProt P07154).
T1 construct: Cathepsin L was purified from rat kidney; from tissue; host or cells: rat kidney
The experiment in a line: Thiol protease inhibitory activity, cathepsin L purified from rat kidney. Particulars: Table 3. Here is the method:
(§1) Inhibitory activity against papain (P-3125, Sigma) and cathepsin B (C-6286, Sigma) was assayed according to the method described in a literature [Biochemical Journal, 201, 189 (1982)]. Cathepsin L was purified from rat kidney according to the method in a literature [Journal of Biochemistry, 100, 35 (1986)], and the inhibitory activity against it was assayed in the same manner as described in the above literature for cathepsin B. Furthermore, m-calpain was purified from rat brain according to a known method [Journal of Biological Chemistry, 254, p. 3210 (1984)] and the inhibitory activity against it was assayed by a method described in a literature [Journal of Biological Chemistry, 259, 12489 (1984)]. It is evident from Tables 3 and 4 that the compounds of the present invention have a potent inhibitory activity against thiol proteases such as papain, cathepsin B, cathepsin L or m-calpain.

The next assay concerns the target T2, cathepsin B (Bos taurus, UniProt P07688).
T2 construct: purchased Sigma C-6286
Kind of assay: Thiol protease inhibitory activity, cathepsin B (C-6286, Sigma). To be noted: Table 3. The method, then: as §1

The next assay concerns the target T3, papain (Carica papaya, UniProt P00784).
T3 sequence (P00784 134-345): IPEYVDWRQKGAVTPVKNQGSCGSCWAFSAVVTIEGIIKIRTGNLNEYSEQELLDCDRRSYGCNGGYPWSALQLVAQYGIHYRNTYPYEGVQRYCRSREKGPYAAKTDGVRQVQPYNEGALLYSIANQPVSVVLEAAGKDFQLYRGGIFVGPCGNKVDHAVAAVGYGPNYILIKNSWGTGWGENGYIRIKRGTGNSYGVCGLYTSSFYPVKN
Kind of assay: Thiol protease inhibitory activity, papain (P-3125, Sigma). To be noted: Table 3; read-out: IC50 papain. The method, then: as §1

Another assay concerns the target T4, m-calpain (Rattus norvegicus, UniProt Q07009).
T4 construct: m-calpain was purified from rat brain; from tissue; host or cells: rat brain
T4 sequence (Q07009 20-700 limits assumed): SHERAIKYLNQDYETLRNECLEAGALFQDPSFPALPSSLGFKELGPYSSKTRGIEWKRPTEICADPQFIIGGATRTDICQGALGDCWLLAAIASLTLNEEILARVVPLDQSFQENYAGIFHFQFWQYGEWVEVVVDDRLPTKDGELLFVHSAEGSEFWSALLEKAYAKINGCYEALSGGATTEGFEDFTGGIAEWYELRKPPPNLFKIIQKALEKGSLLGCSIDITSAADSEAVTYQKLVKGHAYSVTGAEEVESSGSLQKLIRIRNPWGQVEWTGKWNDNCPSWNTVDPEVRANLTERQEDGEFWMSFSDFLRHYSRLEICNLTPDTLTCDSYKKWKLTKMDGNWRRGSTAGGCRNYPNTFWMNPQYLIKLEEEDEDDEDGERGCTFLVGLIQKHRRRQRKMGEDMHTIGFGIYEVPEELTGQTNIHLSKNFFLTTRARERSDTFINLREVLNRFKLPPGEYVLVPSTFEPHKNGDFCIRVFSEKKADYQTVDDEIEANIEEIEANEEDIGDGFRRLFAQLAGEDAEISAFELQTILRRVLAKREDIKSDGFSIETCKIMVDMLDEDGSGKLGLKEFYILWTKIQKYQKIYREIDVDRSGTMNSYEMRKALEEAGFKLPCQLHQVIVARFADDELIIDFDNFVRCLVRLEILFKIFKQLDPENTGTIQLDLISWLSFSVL
T4 sequence (Q64537 1-270 partner): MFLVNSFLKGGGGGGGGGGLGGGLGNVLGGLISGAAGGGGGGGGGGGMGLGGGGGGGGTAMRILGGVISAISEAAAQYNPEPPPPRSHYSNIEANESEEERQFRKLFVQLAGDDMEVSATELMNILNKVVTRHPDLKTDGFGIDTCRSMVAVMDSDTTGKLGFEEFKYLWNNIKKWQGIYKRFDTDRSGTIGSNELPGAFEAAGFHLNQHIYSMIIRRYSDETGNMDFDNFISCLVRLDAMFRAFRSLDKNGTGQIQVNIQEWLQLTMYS
The experiment in a line: Thiol protease inhibitory activity, m-calpain purified from rat brain. Particulars: Table 3. The method, then: as §1

This passage reports IC50 results from US5639783A, “Ketone derivatives” (Mitsubishi Chemical Corporation, priority 1991, dated 1997).

By IC50 is commonly meant the concentration that inhibits the measured activity by half.

T1 sequence (P07154 114-334): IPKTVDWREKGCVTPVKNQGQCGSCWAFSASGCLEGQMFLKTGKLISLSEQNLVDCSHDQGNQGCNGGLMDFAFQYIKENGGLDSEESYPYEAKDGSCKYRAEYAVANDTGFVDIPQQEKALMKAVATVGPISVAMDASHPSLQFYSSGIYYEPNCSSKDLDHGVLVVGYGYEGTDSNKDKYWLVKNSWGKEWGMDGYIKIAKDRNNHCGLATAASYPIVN

Turning to `CCCC[C@H](NC(=O)[C@H](CC(C)C)NC(=O)COc1ccccc1F)C(=O)CSCc1ccco1` [36 (No. 85), (s)-3-[(s)-2-(2-fluorophenoxyacetylamino)-4-methylvalerylamino]-1-furfurylthio-2-heptanone], the IC50 amounted to 1300 nM at cathepsin L, 4900 nM on cathepsin B, 26000 nM at papain and 25000 nM against m-calpain.

As to `CCCC[C@H](NC(=O)[C@H](CC(C)C)NC(=O)COc1cccc(F)c1)C(=O)CSCc1ccco1` [37 (No. 86), (s)-3-[(s)-2-(3-fluorophenoxyacetylamino)-4-methylvalerylamino]-1-furfurylthio-2-heptanone], the 50% inhibitory concentration (IC50) on cathepsin L was 450 nM; on cathepsin B it was 700 nM; on papain, 1300 nM; on m-calpain, 15000 nM.

`CCCC[C@H](NC(=O)[C@H](CC(C)C)NC(=O)COc1ccc(F)cc1)C(=O)CSCc1ccco1` [38 (No. 87), (s)-3-[(s)-2-(4-fluorophenoxyacetylamino)-4-methylvalerylamino]-1-furfurylthio-2-heptanone]: the IC50 at cathepsin L stood at 720 nM; at cathepsin B it was 620 nM; on papain, 420 nM; against m-calpain it was 5000 nM.

`CCCC[C@H](NC(=O)[C@H](CC(C)C)NC(=O)COc1ccc(Cl)cc1)C(=O)CSCc1ccco1` [40 (No. 90), (s)-3-[(s)-2-(4-chlorophenoxyacetylamino)-4-methylvalerylamino]-1-furfurylthio-2-heptanone]: the IC50 worked out at 850 nM against cathepsin L, 270 nM on cathepsin B, 2100 nM on papain and 8400 nM on m-calpain.

Take `CCCC[C@H](NC(=O)[C@H](CC(C)C)NC(=O)COc1cccc(Cl)c1Cl)C(=O)CSCc1ccco1` [41 (No. 91), (s)-3-[(s)-2-(2,3-dichlorophenoxyacetylamino)-4-methylvalerylamino]-1-furfurylthio-2-heptanone]: the IC50 amounted to 1100 nM at cathepsin L, 5700 nM at cathepsin B, 21000 nM at papain and 14000 nM on m-calpain.

On to `CCCC[C@H](NC(=O)[C@H](CC(C)C)NC(=O)COc1ccc(Cl)cc1Cl)C(=O)CSCc1ccco1` [42 (No. 92), (s)-3-[(s)-2-(2,4-dichlorophenoxyacetylamino)-4-methylvalerylamino]-1-furfurylthio-2-heptanone], for which the IC50 worked out at 740 nM against cathepsin L, 1900 nM on cathepsin B, 4500 nM on papain and 23000 nM against m-calpain.

`CCCC[C@H](NC(=O)[C@H](CC(C)C)NC(=O)COc1c(Cl)cc(Cl)cc1Cl)C(=O)CSCc1ccco1` [43 (No. 94), (s)-1-furfurylthio-3-[(s)-4-methyl-2-(2,4,6-trichlorophenoxyacetylamino)valerylamino]-2-heptanone]: the IC50 at cathepsin L came to 38 nM; at cathepsin B, 57 nM; at papain, 370 nM; at m-calpain it was 5800 nM.

On to `CCCC[C@H](NC(=O)[C@H](CC(C)C)NC(=O)COc1ccccc1C)C(=O)CSCc1ccco1` [44 (No. 96), (s)-1-furfurylthio-3-[(s)-4-methyl-2-(2-methylphenoxyacetylamino)valerylamino]-2-heptanone], for which the IC50 worked out at 60 nM on cathepsin L, 170 nM against cathepsin B, 880 nM at papain and 22000 nM against m-calpain.

Consider `CCCC[C@H](NC(=O)[C@H](CC(C)C)NC(=O)COc1cccc(C)c1)C(=O)CSCc1ccco1` [45 (No. 97), (s)-1-furfurylthio-3-[(s)-4-methyl-2-(3-methylphenoxyacetylamino)valerylamino]-2-heptanone], for which the IC50 at cathepsin L came out at 190 nM; at cathepsin B, 380 nM; on papain, 510 nM; against m-calpain it was 11000 nM.

Consider `CCCC[C@H](NC(=O)[C@H](CC(C)C)NC(=O)COc1ccc(Cl)cc1C)C(=O)CSCc1ccco1` [46 (No. 100), (s)-3-[(s)-2-(4-chloro-2-methylphenoxyacetylamino)-4-methylvalerylamino]-1-furfurylthio-2-heptanone], for which the IC50 against cathepsin L was determined as 100 nM; on cathepsin B it was 400 nM; on papain, 390 nM; against m-calpain, 16000 nM.
